# US20230365592A1 (Agios Pharmaceuticals, Inc., priority 2022, published 2023)
# Target: T1, human PAH with the R408W mutation (Homo sapiens, UniProt P00439, R408W)
# T1 construct: expressed in transfected cells
# T1 sequence (P00439 1-452 R408W): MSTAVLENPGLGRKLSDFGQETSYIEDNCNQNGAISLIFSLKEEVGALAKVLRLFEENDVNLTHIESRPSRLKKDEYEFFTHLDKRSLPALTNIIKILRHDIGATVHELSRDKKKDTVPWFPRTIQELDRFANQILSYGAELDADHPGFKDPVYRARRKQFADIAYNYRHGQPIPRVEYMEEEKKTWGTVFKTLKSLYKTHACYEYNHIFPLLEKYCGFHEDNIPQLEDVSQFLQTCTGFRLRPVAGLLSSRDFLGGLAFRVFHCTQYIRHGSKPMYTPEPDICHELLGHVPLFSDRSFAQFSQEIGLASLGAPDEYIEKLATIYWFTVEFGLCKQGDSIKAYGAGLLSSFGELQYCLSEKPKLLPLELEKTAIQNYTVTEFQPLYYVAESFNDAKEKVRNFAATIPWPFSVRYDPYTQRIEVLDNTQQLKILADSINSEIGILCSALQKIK
# Test: Cell Based Phenylalanine Flux Assay;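 further: after compound treatment, cells received sepiapterin plus isotope-labelled Phenylalanine for 4 hours, then labelled Tyrosine in the medium was quantified, 10-point 2-fold dilution series run in duplicate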
# Conditions: A375 cells expressing R408W PAH; 24 hrs with compound, then 20 µM sepiapterin and 800 µM 13C9,15N-Phenylalanine for 4 hours; 13C-Tyrosine by LC-MS; average where tested multiple times; read-out: AC50
row,SMILES,AC50
1,Cc1cccn2nc(C3c4nc[nH]c4CCN3c3nnc(-c4ccncn4)o3)cc12 (stereo not drawn),> 5000 nM
2,CC(C)(C)c1nnc(N2CCc3[nH]cnc3C2c2cc3cccc(C(F)F)n3n2)o1 (stereo not drawn),> 5000 nM
3,COCCc1ccc2c(C(=O)N3CCc4[nH]cnc4C3c3cc4cccc(C(F)(F)F)n4n3)cnn2c1 (stereo not drawn),1000 to 5000 nM
4,CC(C)(C)c1nnc(C(=O)N2CCc3[nH]cnc3C2c2cc3cc(C(F)(F)F)ccn3n2)o1 (stereo not drawn),1000 to 5000 nM

# Same assay, conditions: A375 cells expressing human PAH R408W; 24 hrs compound incubation; 13C-Tyrosine by LC-MS; average where tested multiple times; read-out: AC50
row,SMILES,AC50
1,"Cc1cccn2nc([C@@H]3c4nc[nH]c4CCN3c3ccc(C(F)(F)F)cn3)cc12 [Example 1941, (S)-4-(4-methylpyrazolo[1,5-a]pyridin-2-yl)-5-(5-(trifluoromethyl)pyridin-2-yl)-4,5,6,7-tetrahydro-1H-imidazo[4,5-c]pyridine]",< 500 nM
2,"FC(F)(F)c1cccn2nc([C@@H]3c4nc[nH]c4CCN3c3ccccn3)cc12 [Example 1870, (S)-5-(pyridin-2-yl)-4-(4-(trifluoromethyl)pyrazolo[1,5-a]pyridin-2-yl)-4,5,6,7-tetrahydro-1H-imidazo[4,5-c]pyridine]",< 500 nM
3,"Cc1cccn2nc([C@@H]3c4nc[nH]c4CCN3c3nnc(C4CCC4)o3)cc12 [Example 2481, (S)-2-cyclobutyl-5-(4-(4-methylpyrazolo[1,5-a]pyridin-2-yl)-6,7-dihydro-1H-imidazo[4,5-c]pyridin-5(4H)-yl)-1,3,4-oxadiazole]",1000 to 5000 nM
4,"CC(C)(C)c1ncc(C(=O)N2CCc3[nH]cnc3[C@H]2c2cc3c(C(F)F)cccn3n2)o1 [Example 2104, (S)-(2-(tert-butyl)oxazol-5-yl)(4-(4-(difluoromethyl)pyrazolo[1,5-a]pyridin-2-yl)-1,4,6,7-tetrahydro-5H-imidazo[4,5-c]pyridin-5-yl)methanone]",< 500 nM
5,"O=C(c1nnc(C2CC2)o1)N1CCc2[nH]cnc2[C@H]1c1cc2c(C3CC3)cccn2n1 [Example 1838, (S)-(5-cyclopropyl-1,3,4-oxadiazol-2-yl)(4-(4-cyclopropylpyrazolo[1,5-a]pyridin-2-yl)-1,4,6,7-tetrahydro-5H-imidazo[4,5-c]pyridin-5-yl)methanone]",< 500 nM

# Same assay, conditions: A375 cells expressing human R408W PAH; 24 hrs compound incubation; 13C-Tyrosine by LC-MS; average where tested multiple times; read-out: AC50
row,SMILES,AC50
1,"CN(C)c1ccc2c(C(=O)N3CCc4[nH]cnc4[C@@H]3c3cc4c(C(F)F)cccn4n3)cnn2c1 [Example 1771, (R)-(4-(4-(difluoromethyl)pyrazolo[1,5-a]pyridin-2-yl)-6,7-dihydro-1H-imidazo[4,5-c]pyridin-5(4H)-yl)(6-(dimethylamino)pyrazolo[1,5-a]pyridin-3-yl)methanone]",> 5000 nM
2,"Cc1nc(C(C)(C)F)oc1C(=O)N1CCc2[nH]cnc2[C@@H]1c1cc2c(Cl)cccn2n1 [Example 1277, (R)-(4-(4-chloropyrazolo[1,5-a]pyridin-2-yl)-6,7-dihydro-1H-imidazo[4,5-c]pyridin-5(4H)-yl)(2-(2-fluoropropan-2-yl)-4-methyloxazol-5-yl)methanone]",< 500 nM
3,"O=C(c1nnc(-c2ccc(F)cc2F)o1)N1CCc2[nH]cnc2[C@H]1c1cc2ccccn2n1 [Example 652, (S)-(5-(2,4-difluorophenyl)-1,3,4-oxadiazol-2-yl)(4-(pyrazolo[1,5-a]pyridin-2-yl)-6,7-dihydro-1H-imidazo[4,5-c]pyridin-5(4H)-yl)methanone]",< 500 nM
4,"Cn1nc(C(F)F)cc1C(=O)N1CCc2[nH]cnc2[C@H]1c1cc2cccc(C(F)F)n2n1 [Example 1402, (S)-(3-(difluoromethyl)-1-methyl-1H-pyrazol-5-yl)(4-(7-(difluoromethyl)pyrazolo[1,5-a]pyridin-2-yl)-6,7-dihydro-1H-imidazo[4,5-c]pyridin-5(4H)-yl)methanone]",500 to 1000 nM
5,"O=C(N1CCc2[nH]cnc2[C@H]1c1cc2ccccn2n1)C(F)(F)C1(O)CCC1 [Example 638, (S)-2,2-difluoro-2-(1-hydroxycyclobutyl)-1-(4-(pyrazolo[1,5-a]pyridin-2-yl)-6,7-dihydro-1H-imidazo[4,5-c]pyridin-5(4H)-yl)ethanone]",< 500 nM
6,"Cc1ccc2cc([C@H]3c4nc[nH]c4CCN3C(=O)c3ccnn3C(F)F)nn2c1 [Example 1113, (R)-(1-(difluoromethyl)-1H-pyrazol-5-yl)(4-(6-methylpyrazolo[1,5-a)pyridin-2-yl)-6,7-dihydro-1H-imidazo[4,5-c]pyridin-5(4H)-yl)methanone]",1000 to 5000 nM
7,"CC(C)(F)c1nnc(C(=O)N2CCc3[nH]cnc3[C@@H]2c2cc3cccc(F)n3n2)o1 [Example 986, (R)-(5-(2-fluoropropan-2-yl)-1,3,4-oxadiazol-2-yl)(4-(7-fluoropyrazolo[1,5-a]pyridin-2-yl)-6,7-dihydro-1H-imidazo[4,5-c]pyridin-5(4H)-yl)methanone]",1000 to 5000 nM
8,"Cc1cccc2cc([C@H]3c4nc[nH]c4CCN3C(=O)c3cnn4cc(CN(C)C)ccc34)nn12 [Example 1691, (R)-(6-((dimethylamino)methyl)pyrazolo[1,5-a]pyridin-3-yl)(4-(7-methylpyrazolo[1,5-a]pyridin-2-yl)-6,7-dihydro-1H-imidazo[4,5-c]pyridin-5(4H)-yl)methanone]",> 5000 nM
9,"Cn1cnc(-c2nc(C(F)F)c(C(=O)N3CCc4[nH]cnc4[C@H]3c3cc4c(F)cccn4n3)o2)c1 [Example 921, (S)-(4-(difluoromethyl)-2-(1-methyl-1H-imidazol-4-yl)oxazol-5-yl)(4-(4-fluoropyrazolo[1,5-a]pyridin-2-yl)-6,7-dihydro-1H-imidazo[4,5-c]pyridin-5(4H)-yl)methanone]",< 500 nM
10,"CC(C)(C)c1nnc(C(=O)N2CCc3[nH]cnc3[C@H]2c2cc3c(Cl)cccn3n2)o1 [Example 1047, (S)-(5-(tert-butyl)-1,3,4-oxadiazol-2-yl)(4-(4-chloropyrazolo[1,5-a]pyridin-2-yl)-6,7-dihydro-1H-imidazo[4,5-c]pyridin-5(4H)-yl)methanone]",< 500 nM
11,"O=C(c1nnc(-c2ccn(C(F)(F)F)n2)o1)N1CCc2[nH]cnc2[C@H]1c1cc2ccccn2n1 [Example 1506, (S)-(4-(pyrazolo[1,5-a]pyridin-2-yl)-6,7-dihydro-1H-imidazo[4,5-c]pyridin-5(4H)-yl)(5-(1-(trifluoromethyl)-1H-pyrazol-3-yl)-1,3,4-oxadiazol-2-yl)methanone]",< 500 nM
12,"O=C(c1nnc(-c2ncccn2)o1)N1CCc2[nH]cnc2[C@@H]1c1cc2cccc(Cl)n2n1 [Example 1392, (R)-(4-(7-chloropyrazolo[1,5-a]pyridin-2-yl)-6,7-dihydro-1H-imidazo[4,5-c]pyridin-5(4H)-yl)(5-(pyrimidin-2-yl)-1,3,4-oxadiazol-2-yl)methanone]",1000 to 5000 nM
